ChEMBL document CHEMBL3526012, “Metabolism of (2S)-pterosin A: identification of the phase I and phase II metabolites in rat urine” (Drug Metab Dispos, 2012)
Values after ≈ are worked out from the molar mass of the structure shown.

Tests used:
[1] = Drug recovery in Wistar rat urine assessed as retention time treated with (2S)-Pterosin at 100 mg/kg, po administered via gavage measured up to 24 hrs by HRESIMS analysis; type: ADME, organism-based; design: dose 100 mg/kg, route oral; conditions: in vivo
[2] = Drug recovery in Wistar rat urine treated with (2S)-Pterosin at 100 mg/kg, po administered via gavage measured up to 24 hrs by reverse-phase HPLC analysis; type: ADME, organism-based; design: dose 100 mg/kg, route oral; conditions: in vivo
[3] = Cytotoxicity against human HL60 cells; type: cell-based; conditions: HL-60
[4] = Drug recovery in Wistar rat urine assessed as retention time at 100 mg/kg, po administered via gavage measured up to 24 hrs by HRESIMS analysis; type: ADME, organism-based; design: dose 100 mg/kg, route oral; conditions: in vivo
[5] = Drug recovery in Wistar rat urine at 100 mg/kg, po administered via gavage measured up to 24 hrs by HRESIMS analysis; type: ADME, organism-based; design: dose 100 mg/kg, route oral; conditions: read-out: Drug recovery
[6] = Drug recovery in Wistar rat urine at 100 mg/kg, po administered via gavage measured up to 24 hrs by reverse-phase HPLC analysis; type: ADME, organism-based; design: dose 100 mg/kg, route oral; conditions: in vivo
[7] = tested on: HeLa; experiment: Cytotoxicity against human HeLa cells; type: cell-based

| Compound | Retention_time [1] | Drug recovery [2] | other results |
| --- | --- | --- | --- |
| Cc1cc2c(c(C)c1CCO)C(=O)[C@H](C)[C@@H]2O | 25.27 min | metabolite_detected | – |
| Cc1cc2c(c(C)c1CCO[C@@H]1O[C@H](C(=O)O)[C@@H](O)[C@H](O)[C@H]1O)C(=O)[C@](C)(CO)C2 | 29.61 min | metabolite_detected | – |
| Cc1c(CCO)c(CO)cc2c1C(=O)[C@](C)(CO)C2 | 20.2 min | metabolite_detected | – |
| Cc1c2c(cc3c1C(=O)[C@](C)(CO)C3)COC(=O)C2 | 23.37 min | metabolite_detected | – |
| Cc1cc2c(c(C)c1CCO)C(=O)[C@](C)(CO)C2 | – | – | Retention_time [4]: 36.51 min; dose excreted at 24 h [5]: 2.64%; Drug recovery [6]: Active |
| COC(=O)Cc1c(C)cc2c(c1C)C(=O)[C@](C)(CO)C2 | 45.33 min | metabolite_detected | – |
| Cc1cc2c(c(C)c1CCO)C(=O)[C@](C)(CO)[C@H]2O | 14.12 min | metabolite_detected | – |
| Cc1cc2c(c(C)c1CCO[C@@H]1O[C@H](C(=O)O)[C@@H](O)[C@H](O)[C@H]1O)C(=O)C(C)C2 (stereo partly drawn) | 44.2 min | metabolite_detected | – |
| Cc1c2c(cc3c1C(=O)[C@](C)(CO)C3)C(=O)OCC2 | 29.61 min | metabolite_detected | – |
| Cc1cc2c(c(C)c1C(O)CO)C(=O)C(C)C2 (racemic) | 35.09 min | metabolite_detected | – |

Now from value to molecule, other results behind:

| Retention_time [1] | Drug recovery [2] | Compound | other results |
| --- | --- | --- | --- |
| 49.54 min | metabolite_detected | Cc1cc2c(c(C)c1CCO)C(=O)C(C)C2 (racemic) | IC50 [3]: 8.7 µg/mL (≈ 39.9 µM) |
| 29.61 min | metabolite_detected | Cc1c(CCO)c(CO)cc2c1C(=O)C(C)C2 (racemic) | – |
| 46.2 min | metabolite_detected | Cc1cc2c(c(C)c1C)C(=O)[C@](C)(CO)[C@@H]2O | – |
| 32.08 min | metabolite_detected | Cc1cc2c(c(C)c1CCO)C(=O)[C@](C)(CO[C@@H]1O[C@H](C(=O)O)[C@@H](O)[C@H](O)[C@H]1O)C2 | – |
| 37.27 min | metabolite_detected | Cc1cc2c(c(C)c1CC(=O)O)C(=O)[C@](C)(CO)C2 | – |
| 24.6 min | metabolite_detected | Cc1cc2c(c(C)c1CC(=O)O[C@@H]1O[C@H](C(=O)O)[C@@H](O)[C@H](O)[C@H]1O)C(=O)[C@](C)(CO)C2 | – |
| 20.74 min | metabolite_detected | Cc1cc2c(c(C)c1CCO)C(=O)[C@](C)(CO)[C@@H]2O | – |
| 26.11 min | metabolite_detected | Cc1cc2c(c(C)c1CC(=O)O)C(=O)[C@](C)(CO)[C@@H]2O | – |
| 27.6 min | metabolite_detected | Cc1cc2c(c(C)c1CCO)C(=O)[C@@H](C)[C@@H]2O | – |
| 48.39 min | metabolite_detected | Cc1cc2c(c(C)c1CC(=O)O)C(=O)C(C)C2 (racemic) | IC50 [7]: 30 µg/mL (≈ 129 µM) |
